PubChem BioAssay AID1259407 (Chemical Carcinogenesis Research Information System (CCRIS), 2018)
Activity calls are given as the source filed them. No rule for the calls is given here.

System: CCRIS mutagenicity, Ames/micronucleus/aberration tests
Assay: CCRIS mutagenicity studies
[1] = Test System: AMES SALMONELLA TYPHIMURIUM, Strain/Indicator: TA98, Metabolic Activation: NONE, Method: STANDARD PLATE
[2] = Test System: AMES SALMONELLA TYPHIMURIUM, Strain/Indicator: TA100, Metabolic Activation: NONE, Method: STANDARD PLATE

OCC1=CCN2CC[C@@H](O)[C@@H]12
mutagenic call (Test System: AMES SALMONELLA TYPHIMURIUM, Strain/Indicator: TA100, Metabolic Activation: HAMSTER, LIVER, S-9, PCB, Method: PREINCUBATION): inactive; negative | mutagenic call (Test System: AMES SALMONELLA TYPHIMURIUM, Strain/Indicator: TA100, Metabolic Activation: RAT, LIVER, S-9, PCB, Method: PREINCUBATION): inactive; negative | mutagenic call (Test System: UDS HAMSTER HEPATOCYTES, Strain/Indicator: THY INCORP, Metabolic Activation: NONE, Method: AUTORADIOGRAPHY): inactive; negative | mutagenic call (Test System: UDS MOUSE HEPATOCYTES, Strain/Indicator: THY INCORP, Metabolic Activation: NONE, Method: AUTORADIOGRAPHY): inactive; negative | mutagenic call (Test System: UDS RAT HEPATOCYTES, Strain/Indicator: THY INCORP, Metabolic Activation: NONE, Method: AUTORADIOGRAPHY): inactive; negative

CCOP(=O)(NC(C)C)Oc1ccccc1C(=O)OC(C)C (stereo unspecified)
mutagenic call [1]: active; positive | mutagenic call (Test System: AMES SALMONELLA TYPHIMURIUM, Strain/Indicator: TA98, Metabolic Activation: RAT, LIVER, S-9, Method: STANDARD PLATE): active; positive | mutagenic call [2]: inactive; negative | mutagenic call (Test System: AMES SALMONELLA TYPHIMURIUM, Strain/Indicator: TA100, Metabolic Activation: RAT, LIVER, S-9, Method: STANDARD PLATE): inactive; negative

Oc1cccc2c1ccc1[nH]c3ccc4ccccc4c3c12
mutagenic call [1]: active; positive | mutagenic call (Test System: AMES SALMONELLA TYPHIMURIUM, Strain/Indicator: TA98, Metabolic Activation: RAT, LIVER, S-9, 3-METHYLCHOLANTHRENE, Method: STANDARD PLATE): active; positive | mutagenic call [2]: active; positive | mutagenic call (Test System: AMES SALMONELLA TYPHIMURIUM, Strain/Indicator: TA100, Metabolic Activation: RAT, LIVER, S-9, 3-METHYLCHOLANTHRENE, Method: STANDARD PLATE): active; positive | mutagenic call (Test System: AMES SALMONELLA TYPHIMURIUM, Strain/Indicator: TM677, Metabolic Activation: NONE, Method: PREINCUBATION): inactive; negative | mutagenic call (Test System: AMES SALMONELLA TYPHIMURIUM, Strain/Indicator: TM677, Metabolic Activation: RAT, LIVER, S-9, 3-METHYLCHOLANTHRENE (10%), Method: PREINCUBATION): active; positive | mutagenic call (Test System: AMES SALMONELLA TYPHIMURIUM, Strain/Indicator: TM677, Metabolic Activation: RAT, LIVER, S-9, AROCLOR 1254 (10%), Method: PREINCUBATION): active; positive

O=c1c2ccccc2c(=O)c2c1cc(Cl)c1[nH]c3c([nH]c12)c(Cl)cc1c(=O)c2ccccc2c(=O)c13
mutagenic call (Test System: Ames Salmonella typhimurium, Strain/Indicator: TA98, Metabolic Activation: None, Method: Preincubation): active; positive | mutagenic call (Test System: Ames Salmonella typhimurium, Strain/Indicator: TA100, Metabolic Activation: None, Method: Preincubation): inactive; negative | mutagenic call (Test System: Ames Salmonella typhimurium, Strain/Indicator: TA102, Metabolic Activation: None, Method: Preincubation): inactive; negative | mutagenic call (Test System: Ames Salmonella typhimurium, Strain/Indicator: TA1535, Metabolic Activation: None, Method: Preincubation): inactive; negative

O=C(/C=C/c1ccc(O)c(O)c1)O[C@H](Cc1ccc(O)c(O)c1)C(=O)O
mutagenic call (End Point: In vivo micronucleus, Species: Mouse, Strain/Sex: Swiss/Male, Route: Oral): inactive; negative
